Here are results for 12 molecules from publication PMC8911944, “Screening of Natural Products Inhibitors of SARS-CoV-2 Entry” (Molecules, 2022).

This assay relates to pseudotyped HIV-1 with the D614G SARS-CoV-2 spike glycoprotein. In kind it is cell-based.

In the case of `CC1=C[C@H](O)[C@H]2C[C@@H]1C2(C)C` (relative stereo) [cis-Verbenol], the “Antiviral Activity (% of Inhibition)” value was −171.26 ± 32.54%.

With `C/C=C/[C@H]1OC(=O)C=C[C@H]1OC(C)=O` [Acetylphomolactone], the “Antiviral Activity (% of Inhibition)” value is reported as −0.65 ± 6.16%.

Turning to `CC(=O)OC1C=CC(=O)OC1C1OC1C` (stereo not drawn) [Asperline], the “Antiviral Activity (% of Inhibition)” value is reported as −15.48 ± 8.34%.

On to `CC(=O)C1COC(O)C1C` (stereo not drawn) [Botryodiplodin], for which the “Antiviral Activity (% of Inhibition)” value is on record as −88.21 ± 12.51%.

Consider `C=C1CC[C@H]2O[C@]2(C)CC[C@@H]2[C@@H]1CC2(C)C` [Caryophyllene Oxide], for which the “Antiviral Activity (% of Inhibition)” value is 43.82 ± 6.31%.

As to `C[C@H]1CC[C@@H](C(C)(C)O)CC2=C1CC[C@@H]2C` [Guaiol], the “Antiviral Activity (% of Inhibition)” value is given as −60.20 ± 8.02%.

Regarding `CC(O)[C@@H]1NC(=O)c2cccn2C1=O` (stereo partly drawn) [Macrophominol], the “Antiviral Activity (% of Inhibition)” value is listed as −91.39 ± 26.65%.

As to `C=C(C)[C@H]1CC=C(C)CC1` [R-Limonene], the “Antiviral Activity (% of Inhibition)” value is listed as −27.90 ± 16.41%.

For the molecule `C/C=C/c1ccc(OC)cc1` [Trans-anethole], the “Antiviral Activity (% of Inhibition)” value amounted to 5.02 ± 0.71%.

Take `C=C1CC/C=C(\C)CC[C@@H]2[C@@H]1CC2(C)C` [β-Caryophyllene]: the “IC50 (50% inhibitory concentration)” value came to 98.5.

As to Isoasperline, the “Antiviral Activity (% of Inhibition)” value was −19.82 ± 10.21%.

For the molecule S-Limonene, the “Antiviral Activity (% of Inhibition)” value is recorded as −62.63 ± 22.17%.
